This is an account of results in patent publication US11359011B2, “Treatment and prevention of cardiovascular disease” (Edifice Health, Inc., priority 2019, dated 2022).

The test system of one test is estrogen levels. The note with it: while raising testosterone levels; cited from earlier work.
A further test has as its system Mouse thoracic aortas. As to the kind of experiment: Acetylcholine relaxation of mouse thoracic aortic rings on an isometric wire myograph after exposure to MIG. The note with it: mouse thoracic aortic sections incubated with different concentrations of recombinant mouse MIG, pre-contracted with U46619; FIG. 6. The protocol:
Mouse thoracic aortas were carefully dissected, and vessels were cut into small rings and mounted on an isometric wire myograph chambers (Danish Myo Technology) and subjected to a normalization protocol. Following normalization, the vessels were incubated with either PBS or different concentrations of recombinant mouse MIG (R&D systems, catalog number 492-MM). A concentration-dependent contraction curve was created by accumulative application of the prostaglandin agonist U46619. Subsequently, concentration-dependent relaxation curves of Acetylcholine were conducted on these vessels and percent relaxation calculated for each dose.

On to `N#Cc1ccc(C(c2ccc(C#N)cc2)n2cncn2)cc1` [Letrozole], for which the “reduction of estrogen levels” value in the test with estrogen levels is listed as 98%.

B1: MIG: recombinant mouse MIG (R&D systems, catalog number 492-MM); monokine induced by gamma interferon, CXC chemokine (protein, UniProt P18340 22-126, looked up)
C-X-C motif chemokine 9: TLVIRNARCSCISTSRGTIHYKSLKDLKQFAPSPNCNKTEIIATLKNGDQTCLDPDSANVKKLMKEWEKKISQKKKQKRGKKHQKNMKNRKPKTPQSRRRSRKTT
B1: the “effect on vasorelaxation (percent relaxation to Acetylcholine)” value in the test on Mouse thoracic aortas is reported as “impaired vascular reactivity with increasing concentrations of MIG”.
